SMILES strings stand for the structures. A value given as a limit tells only on which side of the number the result lay.

Broadly, the IC50 is the concentration that gives 50% inhibition.

What all share (format): biochemical
Common to all, as to settings: 10 nM JAK enzyme, 800 nM Abl peptide, room temperature 75 min

Test [1] has as its target T1, JAK3 (Homo sapiens, UniProt P52333).
T1 sequence (P52333 1-1124): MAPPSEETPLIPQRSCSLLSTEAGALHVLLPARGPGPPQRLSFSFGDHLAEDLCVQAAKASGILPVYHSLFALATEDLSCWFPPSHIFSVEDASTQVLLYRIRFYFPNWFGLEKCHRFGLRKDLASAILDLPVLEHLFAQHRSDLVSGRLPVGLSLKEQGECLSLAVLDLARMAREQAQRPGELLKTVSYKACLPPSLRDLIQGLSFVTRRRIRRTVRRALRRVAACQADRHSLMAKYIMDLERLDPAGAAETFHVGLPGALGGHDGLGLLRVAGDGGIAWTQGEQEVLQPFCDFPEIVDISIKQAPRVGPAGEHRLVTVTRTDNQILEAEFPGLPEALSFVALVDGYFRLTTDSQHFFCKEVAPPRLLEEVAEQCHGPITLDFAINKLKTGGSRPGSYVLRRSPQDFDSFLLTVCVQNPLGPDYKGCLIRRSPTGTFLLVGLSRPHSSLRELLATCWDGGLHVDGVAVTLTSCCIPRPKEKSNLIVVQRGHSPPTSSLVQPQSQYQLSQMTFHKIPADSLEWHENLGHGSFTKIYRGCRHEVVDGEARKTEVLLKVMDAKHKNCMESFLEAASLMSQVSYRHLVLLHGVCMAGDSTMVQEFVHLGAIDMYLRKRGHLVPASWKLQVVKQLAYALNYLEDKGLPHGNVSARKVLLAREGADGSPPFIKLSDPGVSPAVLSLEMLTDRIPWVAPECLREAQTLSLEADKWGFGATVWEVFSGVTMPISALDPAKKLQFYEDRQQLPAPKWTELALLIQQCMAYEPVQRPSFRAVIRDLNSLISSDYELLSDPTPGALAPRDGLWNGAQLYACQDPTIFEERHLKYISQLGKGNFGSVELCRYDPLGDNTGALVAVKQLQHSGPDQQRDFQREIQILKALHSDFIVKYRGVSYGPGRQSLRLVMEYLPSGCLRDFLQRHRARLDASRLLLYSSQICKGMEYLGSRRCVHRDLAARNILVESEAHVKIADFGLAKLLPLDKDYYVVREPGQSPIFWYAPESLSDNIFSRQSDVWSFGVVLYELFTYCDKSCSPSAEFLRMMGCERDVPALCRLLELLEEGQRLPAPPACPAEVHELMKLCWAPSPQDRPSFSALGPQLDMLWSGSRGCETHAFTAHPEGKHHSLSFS
Nature of the test: JAK assay (KINASE-GLO luminescent kinase assay), JAK3. The procedure: (§1) All compounds were initially prepared as 10 mM stocks in anhydrous dimethylsulfoxide (DMSO). A 20 μL aliquot of the 10 mM solutions was transferred to individual wells in column 1 of a 96-well polypropylene microtiter plate (Corning #3363) and diluted with DMSO to give a final compound concentration of 4 mM. Test compounds were then serially diluted 1:5 in DMSO for an 11-point concentration response and further diluted in the assay buffer bringing all compound concentrations to a final range of 100 μM to 10 pM in 2.5% DMSO. The assay was performed in white 96-well, flat-bottom, half-area, non-binding assay plate (Corning #3642) in assay buffer consisting of 20 mM HEPES (pH 7.5), 10 mM MgCl2*6H2O, 100 μM sodium orthovanadate, 0.05% CHAPS and 0.1% bovine serum albumin. A 10 μL aliquot of compound from each well of the intermediate dilution plate and 20 μL of a 2×JAK substrate/enzyme solution containing acceptor substrate (800 nM Abl peptide), JAK enzyme (10 nM JAK1, JAK2, JAK3, or TYK2), and 1,4-Dithiothreitol (DTT, 2 μM) were added to all wells. The reaction was initiated by the addition of 10 μL of 4× stock solution ATP (2 μM). Reactions were thoroughly mixed manually, covered and allowed to incubate at room temperature for 75 min. Protein kinase activity was quantitated using Promega's KINASE-GLO™ luminescent Kinase Assay Kit according to the manufacturer's directions. ATP concentrations remaining in Test wells following the termination of the enzymatic reaction were compared against control wells containing equivalent amounts of DMSO containing no inhibitor (CTRL). […] Percent of Control (POC) values were determined for each concentration of compound tested according to the equation:
(§2) [formula] • IC50 values were calculated using the following 4-parameter logistic curve-fitting algorithm:
(§3) [formula] • IC50 values were converted to Ki values using the Cheng-Prusoff Equation: […]

For test [2], the target named is TYK2 (Homo sapiens, UniProt P29597). Nature of the test: JAK assay (KINASE-GLO luminescent kinase assay), TYK2. The procedure:
as §1, with “A 20 μL aliquot of the 10 mM solutions was transferred to individual wells in column 1 of a 96-well polypropylene microtiter plate (Corning #3363) and diluted with DMSO to give a final compound concentration of 4 mM.” left out
as §2, §3

Test [3] deals with JAK2 (Homo sapiens, UniProt O60674). Briefly: JAK assay (KINASE-GLO luminescent kinase assay), JAK2. On the procedure:
as §1, §2, §3
Background: Kinase-Glo reads ATP consumption through a luciferase reaction.

Test [4] has as its target JAK1 (Homo sapiens, UniProt P23458). Briefly: JAK assay (KINASE-GLO luminescent kinase assay), JAK1. On the procedure: as §1, §2, §3

TYK2, sequence (P29597 whole entry): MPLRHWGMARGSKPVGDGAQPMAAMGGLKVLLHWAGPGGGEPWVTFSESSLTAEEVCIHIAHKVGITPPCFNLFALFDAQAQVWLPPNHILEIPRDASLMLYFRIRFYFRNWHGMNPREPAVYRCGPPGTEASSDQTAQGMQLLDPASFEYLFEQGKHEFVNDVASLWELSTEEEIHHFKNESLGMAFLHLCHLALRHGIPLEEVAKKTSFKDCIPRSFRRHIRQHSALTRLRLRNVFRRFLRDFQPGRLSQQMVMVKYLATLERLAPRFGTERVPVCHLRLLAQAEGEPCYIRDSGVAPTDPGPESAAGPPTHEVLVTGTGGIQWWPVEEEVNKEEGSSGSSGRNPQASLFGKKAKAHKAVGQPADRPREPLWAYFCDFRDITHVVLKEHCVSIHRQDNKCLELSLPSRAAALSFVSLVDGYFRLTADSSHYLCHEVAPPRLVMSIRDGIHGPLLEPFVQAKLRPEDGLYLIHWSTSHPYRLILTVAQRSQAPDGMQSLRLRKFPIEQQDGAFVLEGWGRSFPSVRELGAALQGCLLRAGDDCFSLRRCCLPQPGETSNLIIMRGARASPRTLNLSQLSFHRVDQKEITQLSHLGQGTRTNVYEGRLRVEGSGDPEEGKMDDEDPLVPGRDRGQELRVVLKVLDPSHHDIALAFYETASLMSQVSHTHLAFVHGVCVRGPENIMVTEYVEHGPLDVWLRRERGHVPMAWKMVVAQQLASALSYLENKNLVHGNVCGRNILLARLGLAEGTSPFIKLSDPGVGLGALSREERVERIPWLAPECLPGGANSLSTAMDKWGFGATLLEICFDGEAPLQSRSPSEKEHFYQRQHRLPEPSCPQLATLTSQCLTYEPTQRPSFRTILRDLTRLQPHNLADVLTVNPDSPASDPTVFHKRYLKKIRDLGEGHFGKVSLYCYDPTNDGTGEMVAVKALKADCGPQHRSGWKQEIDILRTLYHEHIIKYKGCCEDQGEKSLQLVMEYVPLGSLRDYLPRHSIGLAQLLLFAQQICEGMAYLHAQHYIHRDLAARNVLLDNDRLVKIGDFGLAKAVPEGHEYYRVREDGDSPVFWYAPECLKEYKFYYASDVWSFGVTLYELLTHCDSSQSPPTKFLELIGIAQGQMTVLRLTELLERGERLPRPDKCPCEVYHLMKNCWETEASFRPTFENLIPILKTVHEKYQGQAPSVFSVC
JAK1, sequence (P23458 whole entry): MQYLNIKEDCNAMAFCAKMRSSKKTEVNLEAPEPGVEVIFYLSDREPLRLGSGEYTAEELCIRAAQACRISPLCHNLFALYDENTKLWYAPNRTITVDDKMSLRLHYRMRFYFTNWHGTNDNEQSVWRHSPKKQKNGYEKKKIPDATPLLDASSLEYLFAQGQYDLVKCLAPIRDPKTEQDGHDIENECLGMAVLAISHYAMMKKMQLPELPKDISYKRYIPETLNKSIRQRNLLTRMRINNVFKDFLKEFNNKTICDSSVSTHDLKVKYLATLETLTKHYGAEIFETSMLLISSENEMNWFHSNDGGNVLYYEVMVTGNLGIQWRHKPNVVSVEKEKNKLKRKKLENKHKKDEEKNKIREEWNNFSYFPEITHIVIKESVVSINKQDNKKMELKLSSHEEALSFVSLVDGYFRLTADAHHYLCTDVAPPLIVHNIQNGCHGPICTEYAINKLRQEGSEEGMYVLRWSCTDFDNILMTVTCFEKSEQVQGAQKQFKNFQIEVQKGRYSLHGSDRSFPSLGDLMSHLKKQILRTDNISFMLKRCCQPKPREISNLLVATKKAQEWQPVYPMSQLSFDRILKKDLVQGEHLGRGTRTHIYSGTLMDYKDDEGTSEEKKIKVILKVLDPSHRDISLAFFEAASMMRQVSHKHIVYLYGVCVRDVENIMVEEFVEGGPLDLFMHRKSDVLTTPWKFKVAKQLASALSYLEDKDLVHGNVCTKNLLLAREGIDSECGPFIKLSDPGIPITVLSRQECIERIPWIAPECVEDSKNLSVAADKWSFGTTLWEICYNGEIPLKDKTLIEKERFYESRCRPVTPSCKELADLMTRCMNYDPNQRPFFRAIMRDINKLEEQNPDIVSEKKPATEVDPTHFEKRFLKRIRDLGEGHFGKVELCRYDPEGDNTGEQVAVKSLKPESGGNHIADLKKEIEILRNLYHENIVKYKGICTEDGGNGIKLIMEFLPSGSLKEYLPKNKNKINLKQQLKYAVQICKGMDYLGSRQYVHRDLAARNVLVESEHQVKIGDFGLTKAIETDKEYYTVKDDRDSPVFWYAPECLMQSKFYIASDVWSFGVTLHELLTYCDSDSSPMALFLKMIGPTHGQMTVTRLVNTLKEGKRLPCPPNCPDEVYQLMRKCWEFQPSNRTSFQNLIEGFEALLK
JAK2, sequence (O60674 whole entry): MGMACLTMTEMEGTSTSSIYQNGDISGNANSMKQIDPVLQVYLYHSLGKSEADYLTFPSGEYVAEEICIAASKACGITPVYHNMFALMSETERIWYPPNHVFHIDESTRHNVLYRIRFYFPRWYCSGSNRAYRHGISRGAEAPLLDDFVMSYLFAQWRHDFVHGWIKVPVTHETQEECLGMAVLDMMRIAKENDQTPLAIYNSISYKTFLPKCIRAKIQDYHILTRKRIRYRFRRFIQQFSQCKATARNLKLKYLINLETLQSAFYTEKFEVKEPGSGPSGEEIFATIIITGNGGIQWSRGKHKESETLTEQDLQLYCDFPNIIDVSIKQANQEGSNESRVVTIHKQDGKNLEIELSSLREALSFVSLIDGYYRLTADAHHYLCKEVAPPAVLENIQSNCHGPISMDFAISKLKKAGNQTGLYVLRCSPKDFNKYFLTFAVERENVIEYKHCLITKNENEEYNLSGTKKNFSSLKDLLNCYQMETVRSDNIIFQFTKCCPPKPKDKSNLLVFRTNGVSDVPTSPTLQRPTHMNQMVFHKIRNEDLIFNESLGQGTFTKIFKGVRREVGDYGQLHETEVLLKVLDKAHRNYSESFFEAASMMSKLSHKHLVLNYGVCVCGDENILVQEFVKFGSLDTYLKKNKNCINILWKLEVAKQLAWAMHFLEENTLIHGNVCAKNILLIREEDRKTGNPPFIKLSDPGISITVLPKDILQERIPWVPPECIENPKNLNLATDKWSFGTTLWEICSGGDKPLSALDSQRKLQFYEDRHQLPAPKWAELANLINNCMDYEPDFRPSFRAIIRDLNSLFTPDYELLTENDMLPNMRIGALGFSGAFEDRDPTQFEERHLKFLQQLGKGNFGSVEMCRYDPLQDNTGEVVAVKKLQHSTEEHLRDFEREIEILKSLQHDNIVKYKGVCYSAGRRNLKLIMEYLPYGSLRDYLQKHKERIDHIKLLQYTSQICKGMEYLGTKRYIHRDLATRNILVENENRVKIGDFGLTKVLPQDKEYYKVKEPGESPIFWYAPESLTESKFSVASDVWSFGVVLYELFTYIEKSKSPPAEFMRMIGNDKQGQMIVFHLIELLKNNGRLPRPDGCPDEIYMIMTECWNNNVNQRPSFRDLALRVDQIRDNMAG

As for `Cc1cnc(Nc2ccc(S(C)(=O)=O)cc2)nc1-c1cnn(CC2(Cl)CC2)c1` [CC1═C(N═C(NC2═CC═C(C═C2)[S]], the IC50 was < 10 nM in test [1], < 10 nM in test [2], < 10 nM in test [3] and < 100 nM in test [4].
In the case of `Cc1cnc(Nc2ccccn2)nc1-c1cnn(CC2(Cl)CC2)c1` [CC1═C(N═C(NC2═CC═CC═N2)N═C1)C3═C[N]], the IC50 is < 100000 nM in test [1], < 100000 nM in test [2], < 1000 nM in test [3] and < 100000 nM in test [4].
On to `Cc1cnc(Nc2cnc(N3CCOCC3)nc2)nc1-c1cnn(CC2(CF)CC2)c1` [CC1═C(N═C(NC2═CN═C], for which the IC50 is < 100 nM in test [1], < 1000 nM in test [2], < 10 nM in test [3] and < 1000 nM in test [4].
Turning to `Cc1cnc(NC(=O)Nc2ccc(Cl)cc2)nc1-c1cnn(CC2(CF)CC2)c1` [CC1═C(N═C(NC(═O)NC2═CC═C], the IC50 in test [1], in test [2], in test [3] and in test [4] was > 50000 nM each time.
For the molecule `Cc1cnc(NC(=O)Oc2ccc(Cl)cc2)nc1-c1cnn(CC2(CF)CC2)c1` [CC1═C(N═C(NC(═O)OC2═CC═C], the IC50 in test [1] is < 100000 nM; in test [2] it was < 100000 nM; in test [3], < 1000 nM; in test [4] it was < 100000 nM.
As for `Cc1cnc(NCCCN2CCOCC2)nc1-c1cnn(CCC#N)c1` [CC1═C(N═C(NCCCN2CCOCC2)N═C1)C3═C[N]], the IC50 was > 50000 nM in test [1], < 100000 nM in test [2], < 100000 nM in test [3] and > 50000 nM in test [4].
For `Cc1cnc(NCCN2CCCCC2)nc1-c1cnn(CCC#N)c1` [CC1═C(N═C(NCCN2CCCCC2)N═C1)C3═C[N]], the IC50 in test [1], in test [2], in test [3] and in test [4] was > 50000 nM throughout.
With `Cc1cnc(NCCO)nc1-c1cnn(CCC#N)c1` [CC1═C(N═C(NCCO)N═C1)C2═C[N]], the IC50 in test [1], in test [2], in test [3] and in test [4] was < 100000 nM each time.
For the molecule `C=CCNc1ncc(C)c(-c2cnn(CCC#N)c2)n1` [CC1═C(N═C(NCC═C)N═C1)C2═C[N]], the IC50 in test [1], in test [2], in test [3] and in test [4] was < 100000 nM in each case.
With `Cc1cnc(N2CCCCC2)nc1-c1cnn(CCC#N)c1` [CC1═C(N═C(N═C1)N2CCCCC2)C3═C[N]], the IC50 in test [1], in test [2], in test [3] and in test [4] was > 50000 nM throughout.
`Cc1cc(Nc2ncc(Cl)c(-c3cnn(CCC#N)c3)n2)no1` [CC1═CC(═NO1)NC2═NC(═C]: the IC50 is < 1000 nM in test [1], < 100 nM in test [2], < 100 nM in test [3] and < 1000 nM in test [4].
Regarding `Cc1ccc(Nc2ncc(C)c(-c3cnn(CC4(Cl)CC4)c3)n2)cc1S(C)(=O)=O` [CC1═CC═C(NC2═NC(═C(C)C═N2)C3═C[N]], the IC50 in test [1], in test [2], in test [3] and in test [4] was < 100 nM each time.
`Cc1cncc(Nc2ncc(C)c(-c3cnn(CC4(CF)CCC4)c3)n2)c1` [CC1═CN═CC(═C1)NC2═NC(═C]: the IC50 in test [1] was < 100 nM; in test [2], < 100 nM; in test [3], < 10 nM; in test [4], < 100 nM.
In the case of `Cc1cc(Nc2ncc(C)c(-c3cnn(CC4(CF)CCC4)c3)n2)ccn1` [CC1═NC═CC(═C1)NC2═NC(═C], the IC50 in test [1] is < 100 nM; in test [2] it was < 100 nM; in test [3], < 10 nM; in test [4], < 1000 nM.
With `Cc1cc(Nc2ncc(Cl)c(-c3cnn(CCC#N)c3)n2)on1` [CC1═NOC(═C1)NC2═NC(═C], the IC50 is < 1000 nM in test [1], < 100 nM in test [2], < 10 nM in test [3] and < 100 nM in test [4].
Take `Cc1cc(Nc2nc3c(c(-c4cnn(CC5(C#N)COC5)c4)n2)CN(C(=O)OC(C)(C)C)C3)sn1` [CC1═NSC(═C1)NC2═NC(═C3CN]: the IC50 in test [1], in test [2], in test [3] and in test [4] was > 50000 nM each time.
As for `Cc1cc(Nc2ncc(C)c(-c3cnn(CC4(CF)CCC4)c3)n2)sn1` [CC1═NSC(═C1)NC2═NC═C(C)C], the IC50 in test [1], in test [2], in test [3] and in test [4] was < 10 nM each time.
As for `CC(C)(C)OC(=O)N1CC(C#N)(Cn2cc(-c3nc(Nc4ccc(C(N)=O)cc4)ncc3Cl)cn2)C1` [CC(C)(C)OC(═O)N1CC(C1)(C[N]2C═C], the IC50 is < 100 nM in test [1], < 100 nM in test [2], < 10 nM in test [3] and < 100 nM in test [4].
Take `CC(C)(C)OC(=O)N1CC(CF)(Cn2cc(-c3nc(Nc4ccc(C(N)=O)cc4)ncc3Cl)cn2)C1` [CC(C)(C)OC(═O)N1CC(CF)(C1)C[N]2C═C]: the IC50 in test [1], in test [2], in test [3] and in test [4] was < 100 nM throughout.
Turning to `CC(C)(C)OC(=O)N1CC(CO)(Cn2cc(-c3nc(Nc4ccc(C(N)=O)cc4)ncc3Cl)cn2)C1` [CC(C)(C)OC(═O)N1CC(CO)(C1)C[N]2C═C], the IC50 in test [1] was < 100 nM; in test [2], < 1000 nM; in test [3] it was < 100 nM; in test [4], < 1000 nM.
For `CC(C)(C)OC(=O)N1CCC(Nc2ncc(Cl)c(-c3cnn(CCC#N)c3)n2)C(F)(F)C1` (stereo not shown) [CC(C)(C)OC(═O)N1CCC(NC2═NC(═C], the IC50 in test [1], in test [2], in test [3] and in test [4] was > 50000 nM in each case.
With `CC(C)(C)OC(=O)N1CCN(c2ccc(Nc3ncc(Cl)c(-c4cnn(CCC#N)c4)n3)cc2)CC1` [CC(C)(C)OC(═O)N1CCN(CC1)C2═CC═C], the IC50 in test [1] is < 10 nM; in test [2], < 10 nM; in test [3], < 10 nM; in test [4], < 100 nM.

The values are drawn from US20250236611A1, “PYRAZOLE COMPOUNDS AND USES THEREOF” (ALCON INC., priority 2021, published 2025).
